Data taken from patent publication US20250092056A1, “URACIL DERIVATIVES HAVING VIRUS REPLICATION INHIBITORY ACTIVITY AND PHARMACEUTICAL COMPOSITION COMPRISING THE SAME” (Shionogi & Co., Ltd., priority 2022, published 2025).
Where two headings read alike, the source gives them in different places.

How the values were obtained:
SARS-CoV-2 = assay: Cytopathic effect (CPE) suppression effect confirmation test using HEK293T/ACE2-TMPRSS2 cells; format: cell-based; details: Severe acute respiratory syndrome coronavirus 2, HEK-293T
[1] = biological target: Recombinant SARS-CoV-2 3CL Protease (Severe acute respiratory syndrome coronavirus 2 (2019-nCoV) (SARS-CoV-2), UniProt P0DTD1); assay: biochemical; format: biochemical; details: 50% SARS-CoV-2 3CL protease inhibitory concentration; read-out: IC50
[2] = 50% SARS-CoV-2 infected cell death inhibitory concentration, HEK293T/ACE2-TMPRSS2 cells, read-out: EC50
[3] = 72 h, read-out: EC50 (50% SARS-CoV-2 infected cell death inhibitory concentration), class, HEK293T/ACE2-TMPRSS2 cells, CPE suppression, CellTiter-Glo 2.0 after 3 days culture
[4] = 72 h, HEK293T/ACE2-TMPRSS2 cells, CPE suppression, CellTiter-Glo 2.0 after 3 days culture, read-out: EC50 (50% SARS-CoV-2 infected cell death inhibitory concentration), class
[5] = 72 h, read-out: EC50 (50% SARS-CoV-2 infected cell death inhibitory concentration), HEK293T/ACE2-TMPRSS2 cells, CPE suppression, CellTiter-Glo 2.0 after 3 days culture

SMILES | EC50 (SARS-CoV-2; [2]) [nM] | IC50 [1] [nM] | EC50 (SARS-CoV-2; [3]) [nM] | EC50 (SARS-CoV-2; [4]) [nM] | EC50 (SARS-CoV-2; [5]) [nM]
CCN1CCN(c2c(-c3ccc(F)c(Cl)c3)c(=O)n(-c3cncc(C)c3)c(=O)n2CC#N)CC1=O [Compound I-224] | < 100 | < 10 |  |  | 
N#CCn1c(N2CC(OC(F)F)C2)c(-c2ccc(F)c(C(F)F)c2)c(=O)n(-c2cncc(C#N)c2)c1=O [Compound I-415] | < 100 | < 10 |  |  | 
N#CCn1c(N2CC(O)(c3ncccn3)C2)c(-c2ccc(F)c(Cl)c2)c(=O)n(-c2cncc(OCF)c2)c1=O [Compound I-346] | < 100 | < 10 |  |  | 
N#CCn1c(N2Cc3ccccc3C2)c(Cc2cc(F)c(F)c(F)c2)c(=O)n(-c2cnc3ccccn23)c1=O [Compound I-040] |  | < 10 | < 100 |  | 
CC1(O)CN(c2c(-c3ccc(F)c(Cl)c3)c(=O)n(-c3cncc(C(F)F)n3)c(=O)n2CC#N)C1 [Compound I-382] | < 100 | < 10 |  |  | 
Cn1cnc(Cn2c(=O)c(-c3cccc(Cl)c3)c(N3Cc4ccccc4C3)n(CC#N)c2=O)n1 [Compound I-122] |  | > 100 | 1000 to 5000 |  | 
N#CCn1c(-c2ccc(C#N)nc2)c(-c2ccc(F)c(Cl)c2)c(=O)n(-c2cncc(Cl)c2)c1=O [Compound I-384] | < 100 | < 10 |  |  | 
N#CCn1c(N2CC(O)(C3CC3)C2)c(-c2ccc(F)c(Cl)c2)c(=O)n(-c2cncc(C(F)F)n2)c1=O [Compound I-381] | < 100 | < 10 |  |  | 
N#CCn1c(N2CC3(C2)CC(F)(F)C3)c(-c2ccc(F)c(C#N)c2)c(=O)n(-c2cncc(Cl)c2)c1=O [Compound I-372] | < 100 | < 10 |  |  | 
N#CCn1c(N2CC(C(F)(F)F)C2)c(-c2ccc(F)c(Cl)c2)c(=O)n(-c2cncc(OCF)n2)c1=O [Compound I-421] | < 100 | < 10 |  |  | 
N#CCn1c(N2C[C@H]3C[C@@H]2CN3)c(-c2ccc(F)c(Cl)c2)c(=O)n(-c2cncc(Cl)c2)c1=O [Compound I-146] |  | < 10 | 100 to 1000 |  | 
Cc1cncc(-n2c(=O)c(-c3ccc(F)c(Cl)c3)c(-c3ccc(C(=O)OC(C)(C)C)cc3)n(CC#N)c2=O)c1 [Compound I-027] |  | > 100 | 100 to 1000 |  | 
Cc1cncc(-n2c(=O)c(Cc3cc(F)c(F)c(F)c3)c(-c3cc4ccccc4s3)n(CC#N)c2=O)c1 [Compound I-019] |  | < 10 | < 100 |  | 
N#CCn1c(N2CCC(F)(F)CC2)c(-c2ccc(F)c(C(F)F)c2)c(=O)n(-c2cncc(C#N)c2)c1=O [Compound I-417] | < 100 | < 10 |  |  | 
Cc1cncc(-n2c(=O)c(-c3ccc(F)c(Cl)c3)c(C3=CC4(CCOCC4)C3)n(CC#N)c2=O)c1 [Compound I-297] | < 100 | < 10 |  |  | 
Cc1cc(-n2c(=O)c(-c3ccc(F)c(Cl)c3)c(-c3cc4ccccc4s3)n(CC#N)c2=O)cc(=O)[nH]1 [Compound I-173] |  | < 10 | < 100 |  | 
Cc1cncc(-n2c(=O)c(Cc3cc(F)c(F)c(F)c3)c(N3CCC(C(F)(F)F)C3)n(CC#N)c2=O)c1 (racemic) [Compound I-113] |  | < 10 | < 100 |  | 
Cc1cncc(-n2c(=O)c(Cc3cc(F)c(F)c(F)c3)c(N3CCC4(C3)NC(=O)NC4=O)n(CC#N)c2=O)c1 (racemic) [Compound I-095] |  | 10 to 100 |  | 1000 to 5000 | 
N#CCn1c(N2CCC(O)(C(F)(F)F)CC2)c(-c2ccc(F)c(Cl)c2)c(=O)n(-c2cncc(Cl)c2)c1=O [Compound I-087] |  | < 10 | < 100 |  | 
N#CCn1c(N2CC(OC(F)F)C2)c(-c2ccc(F)c(C#N)c2)c(=O)n(-c2cncc(Cl)c2)c1=O [Compound I-375] | < 100 | < 10 |  |  | 
Cc1cncc(-n2c(=O)c(-c3ccc(F)c(Cl)c3)c(-c3ccc(C4CC4)cc3)n(CC#N)c2=O)c1 [Compound I-071] |  | < 10 | < 100 |  | 
Cc1cncc(-n2c(=O)c(Cc3cc(F)c(F)c(F)c3)c(N3CCC(O)(C(F)(F)F)CC3)n(CC#N)c2=O)c1 [Compound I-116] |  | < 10 | < 100 |  | 
N#CCn1c(N2CCC(F)(F)CC2)c(-c2cc(F)c(F)c(F)c2)c(=O)n(-c2cncc(Cl)c2)c1=O [Compound I-326] | < 100 | < 10 |  |  | 
N#CCn1c(-c2nnc(C3CC3)s2)c(-c2ccc(F)c(Cl)c2)c(=O)n(-c2cncc(Cl)c2)c1=O [Compound I-359] | < 100 | < 10 |  |  | 
Cc1cncc(-n2c(=O)c(-c3ccc(F)c(Cl)c3)c(-c3nc4ccccc4o3)n(CC#N)c2=O)c1 [Compound I-132] |  | < 10 | < 100 |  | 
N#CCn1c(N2CCC(C(F)F)CC2)c(-c2ccc(F)c(F)c2)c(=O)n(-c2cncc(C#N)c2)c1=O [Compound I-412] | < 100 | < 10 |  |  | 

SMILES | EC50 (SARS-CoV-2; [2]) [nM] | IC50 [1] [nM] | EC50 (SARS-CoV-2; [3]) [nM] | EC50 (SARS-CoV-2; [4]) [nM] | EC50 (SARS-CoV-2; [5]) [nM]
Cc1cncc(-n2c(=O)c(Cc3cc(F)c(F)c(F)c3)c(N3CCN(C)C(=O)C3)n(CC#N)c2=O)c1 [Compound I-098] |  | < 10 | < 100 |  | 
N#CCn1c(N2Cc3ccccc3C2)c(Cc2cc(F)c(F)c(F)c2)c(=O)n(-c2nnc3ccccn23)c1=O [Compound I-156] |  | 10 to 100 |  | < 100 | 
Cc1cncc(-n2c(=O)c(Oc3cc(F)c(F)c(F)c3)c(-c3cc4ccccc4s3)n(CC#N)c2=O)c1 [Compound I-018] |  | < 10 | < 100 |  | 
CNc1cnnc(-n2c(=O)c(-c3ccc(F)c(Cl)c3)c(N3CC4(C3)CC(F)(F)C4)n(CC#N)c2=O)c1 [Compound I-218] | 1000 to 5000 | < 10 |  |  | 
N#CCn1c(N2CC(C(F)(F)F)C2)c(-c2ccc(F)c(C#N)c2)c(=O)n(-c2cncc(Cl)c2)c1=O [Compound I-374] | < 100 | < 10 |  |  | 
N#CCn1c(N2CCC(O)(C(F)(F)F)CC2)c(-c2ccc(F)c(Cl)c2)c(=O)n(-c2cnc3cc(F)ccn23)c1=O [Compound I-150] |  | < 10 | < 100 |  | 
N#CCn1c(N2CC3(CCOC3)C2)c(Cc2cc(F)c(F)c(F)c2)c(=O)n(-c2cnc3cccnn23)c1=O [Compound I-144] |  | > 100 | 100 to 1000 |  | 
CC(C)(O)[C@@H]1CCN(c2c(-c3ccc(F)c(Cl)c3)c(=O)n(-c3cncc(C#N)c3)c(=O)n2CC#N)C1 [Compound I-313] | < 100 | < 10 |  |  | 
COc1ccc(-c2c(-c3ccc(F)c(Cl)c3)c(=O)n(-c3cncc(C)c3)c(=O)n2CC#N)cc1 [Compound I-271] | < 100 | < 10 |  |  | 
N#CCn1c(N2CC(OC(F)F)C2)c(-c2ccc(F)c(C(F)F)c2)c(=O)n(-c2cncc(Cl)c2)c1=O [Compound I-342] | < 100 | < 10 |  |  | 
N#CCn1c(N2CCCO2)c(-c2ccc(F)c(Cl)c2)c(=O)n(-c2cncc(Cl)c2)c1=O [Compound I-242] | < 100 | 10 to 100 |  |  | 
CC1(O)CN(c2c(-c3ccc(F)c(Cl)c3)c(=O)n(-c3cncc(Cl)c3)c(=O)n2CC#N)C1 [Compound I-296] | < 100 | < 10 |  |  | 
CC(C)NC(=O)c1c(-c2ccc(F)c(Cl)c2)c(=O)n(-c2cncc(Cl)c2)c(=O)n1CC#N [Compound I-406] | 1000 to 5000 | > 100 |  |  | 
N#CCn1c(N2CC(CO)C2)c(-c2ccc(F)c(Cl)c2)c(=O)n(-c2cncc(Cl)c2)c1=O [Compound I-249] |  | 0.54 |  |  | 7.9
N#CCn1c(N2CC3(C2)CC(F)(F)C3)c(-c2ccc(F)c(Cl)c2)c(=O)n(-c2cnc3cc(F)c(F)cn23)c1=O [Compound I-323] | < 100 | < 10 |  |  | 
N#CCn1c(N2CC3(C2)CC(F)(F)C3)c(-c2cc(F)c(F)c(C#N)c2)c(=O)n(-c2cncc(Cl)c2)c1=O [Compound I-366] | < 100 | < 10 |  |  | 
CC(C)(F)CCc1c(-c2ccc(F)c(Cl)c2)c(=O)n(-c2cncc(Cl)c2)c(=O)n1CC#N [Compound I-357] | < 100 | < 10 |  |  | 
N#CCn1c(N2CC(OC(F)(F)F)C2)c(-c2ccc(F)c(F)c2)c(=O)n(-c2cncc(Cl)c2)c1=O [Compound I-318] | < 100 | < 10 |  |  | 
N#CCn1c(OC2CC(F)(F)C2)c(-c2ccc(F)c(Cl)c2)c(=O)n(-c2cncc(Cl)c2)c1=O [Compound I-245] | < 100 | 10 to 100 |  |  | 
N#CCn1c(N2CC3(CCOC3)C2)c(-c2ccc(F)c(Cl)c2)c(=O)n(-c2cnc3ccc(F)cn23)c1=O [Compound I-130] |  | < 10 | < 100 |  | 
N#CCn1c(N2CCC(C(F)F)CC2)c(-c2ccc(F)c(Cl)c2)c(=O)n(-c2cncc(C#N)c2)c1=O [Compound I-404] | < 100 | < 10 |  |  | 
COC1CN(c2c(-c3ccc(F)c(Cl)c3)c(=O)n(-c3cncc(C(F)F)n3)c(=O)n2CC#N)C1 [Compound I-396] | < 100 | < 10 |  |  | 
N#CCn1c(N2CC(c3ccccc3)C2)c(-c2ccc(F)c(Cl)c2)c(=O)n(-c2cncc(Cl)c2)c1=O [Compound I-083] |  | < 10 | < 100 |  | 
Cc1cncc(N2C(=O)N(CC#N)CC3(COc4ccc(Cl)cc43)C2=O)c1 (racemic) [Compound I-282] | < 100 | 2800 |  |  | 
Cc1cncc(-n2c(=O)c(-c3ccc(F)c(Cl)c3)c(-c3ccc(C(F)(F)F)c(Cl)c3)n(CC#N)c2=O)c1 [Compound I-066] |  | < 10 | < 100 |  | 
Cc1cncc(-n2c(=O)c(Cc3cc(F)c(F)c(F)c3)c(N3Cc4ccccc4C3)n(CC#N)c2=O)c1 [Compound I-205] |  | 0.76 |  |  | 5
